Our source for the Activity and EC50 values is ChEMBL document CHEMBL1126413, “Cumindysoside A, a novel cytotoxic trisnortriterpene glucoside with a 14, 18-cycloapoeuphane-type skeleton from Dysoxylum cumingianum” (1992).

One assay concerns HCT-8. Put plainly: Dose required for in vitro cytotoxic activity against HCT-8 colon carcinoma cells at concentration of 10 ug/ml; NA is no cytotoxicity. In kind it is functional, cell-based. The conditions noted are these: Homo sapiens.
The nature of assay [1]: Effective dose required for in vitro cytotoxic activity against RPMI-7951 melanoma tumor cells. The conditions noted are these: Homo sapiens, read-out: ED50 (the source's name). In kind it is functional.
The nature of assay [2]: Effective dose required for in vitro cytotoxic activity against TE-671 medulloblastoma tumor cells. In kind it is functional. The conditions noted are these: Homo sapiens, read-out: ED50 (the source's name).
The subject of another assay is A549. As to the kind of experiment: Dose required for in vitro cytotoxic activity against A-549 lung carcinoma cells at concentration of 10 ug/ml; NA is no cytotoxicity. In kind it is functional, cell-based. As to conditions: Homo sapiens.

SMILES strings stand for the structures. Values after ≈ are worked out from the molar mass of the structure shown. Active and inactive are the calls of the source. The calls are words filed in the database; no cut-off is given here.

`C=C(C=O)[C@H](C)[C@@H]1CCC23CC12CC[C@@H]1[C@@]2(C)CC[C@@H](OC(C)=O)C(C)(C)[C@@H]2C[C@@H](O[C@@H]2O[C@H](COC(C)=O)[C@@H](O)[C@H](O)[C@H]2O)[C@]13C` (some centres undefined): the result in the assay on HCT-8 and with A549 was inactive. The figures for the EC50 in assay [1] and in assay [2] were 0.34 µg/mL (≈ 0.514 µM) and 2.74 µg/mL (≈ 4.15 µM), respectively.
